Laboratory results taken from patent publication US7638554B2, “Flavanoids as chemotherapeutic, chemopreventive, and antiangiogenic agents” (SRI International, priority 2002, dated 2009).

How the values were obtained:
[1] = tested on: SKOV-3 human ovarian cancer xenografts; assay: SKOV-3 adriamycin- and cisplatin-resistant human ovarian cancer xenografts in nude mice; format: in vivo, female BALB/c mice
Experimental: The in vivo antitumor activity of SR 13179 against the highly aggressive adriamycin and cisplatin-resistant human ovarian cancer cell line SKOV-3 was evaluated in nude mice xenografts. The experiment was carried out as follows: Female BALB/c mice were inoculated subcutaneously with the human ovarian cancer SKOV-3 cells on both flanks. SR 13179 was administered to the mice on the same day as tumor cell inoculation, via two routes of administration, orally and intraperitoneally, in three doses of 10 mg/kg, 30 mg/kg and 100 mg/kg, once a day as a suspension in 0.5% hydroxypropylcellulose. Body weights and tumor volumes were measured twice a week. Results. […] The body weights of the treated mice were unaffected at all doses studied.

[2] = tested on: MMP-9; assay: Western blotting of cell-associated MMP-9 protein, MCF-10-CA1a cells; format: cell-based, human; details: 1, 3, or 5 μM, 48 h
Description: Western Blotting. Proteins were separated by gel electrophoresis using 4-12% pre-cast SDS-polyacrylamide gels (Invitrogen, Carlsbad, Calif.) and then electrophoretically transferred onto Hybond™-P membrane (Amersham Biosciences, Piscataway, N.J.). Blots were probed with specific antibodies (Santa Cruz Biotechnology, Inc). The ECL Plus Western Blotting Detection System of Amersham Biosciences (Piscataway, N.J.) and the procedure recommended by the manufacturer was used for the detection of antigens. Protein bands were quantified by analyzing the images obtained using an Alphaimager™ S-3400 (Alpha Innotech Corp., San Leandro, Calif.).
The effect of SR 13179 on cell-associated MMP-2 and MMP-9 protein levels was studied. MCF-10-CA1a cells were treated with SR 13179 at 1, 3, or 5 μM concentrations for 48 h. Untreated cells were used as control. Proteins were separated by SDS-Polyacrylamide gel electrophoresis and electrophoretically transformed onto Hybond™ P membrane (Amerhsam Biosciences). Blots were probed with specific antibodies (Santa Cruz Biotechnology Inc.).

[3] = tested on: MDA-MB-231 cells; assay: Concurrent cytotoxicity assay (MTT), MDA-MB-231; format: cell-based, human; details: 5 μM, 22 h
Experimental: The in vitro invasion through Matrigel was studied for two human breast cancer lines: MCF-10CA1a, a highly metastatic ER^+ line and MDA-MB-231, an ER^− line. […] At this concentration, SR13179 inhibited invasion of MDA-MB-231 by about 30% (and by 70% at 5 μM). To rule out a cytotoxic effect in the inhibition of invasion, a concurrent cytotoxicity assay was carried out and the number of viable cells was determined by MTT assay. There was less than 5% decrease in MDA-MB-231 cell viability at 5 μM concentration of SR13179 at 22 h. In the same experiment, a motility experiment was conducted, showing that cell migration was inhibited by about 20%.

[4] = tested on: colon cancer cell line HCT-15; assay: Growth inhibition, sulforhodamine-based protein determination, HCT-15; format: cell-based; details: Homo sapiens, HCT-15, 144 h; continuous exposure six days
Experimental: (§1) The novel compound SR 13179 was assayed for its ability to inhibit growth in several cancer cell lines. The cell lines studied included breast cancer cell line MCF-7 (ER+); prostate cancer cell lines LNCaP, PC3, and DU145; lung cancer cell line A427; ovarian cancer cell lines IGROV1, OVCAR-3, OVCAR-4, OVCAR-5, OVCAR-8, and SK-OV-3; and colon cancer cell lines COLO 205, HCC-2998, HCT-116, HCT-15, HT29, KM12, AND SW-620.
(§2) The growth assays for the breast cancer cell lines were conducted according to the method of Example 16. For the other cell lines, each assay was conducted with continuous exposure to the test compound at four log concentrations for six days, using a sulforhodamine-based protein determination to measure growth inhibition.

[5] = tested on: ovarian cancer cell line IGROV1; assay: Growth inhibition, sulforhodamine-based protein determination, IGROV1; format: cell-based; details: Homo sapiens, IGROV-1, 144 h; continuous exposure six days
Experimental: as §1, §2

[6] = tested on: LNCaP human prostate cancer cells; assay: Cell cycle arrest in LNCaP cells (Hoechst 33258 nuclear morphology, flow cytometry); format: cell-based
Experimental: To determine whether SR 13179 exerts its antiproliferative activity by perturbing the cell cycle, the nuclear morphology of LNCaP cells was visualized after treatment with SR 13179. The cells were exposed to the compound for 28 h at concentrations of either 0.5 μM or 1 μM and then stained with the nuclear dye Hoechst 33258.
To investigate the mitotic arrest in more detail, flow cytometry was used to study the effect of SR 13179 on cell cycle progression for LNCaP cells.

[7] = tested on: ovarian cancer cell line SK-OV-3; assay: Growth inhibition, sulforhodamine-based protein determination, SK-OV-3; format: cell-based; details: Homo sapiens, SK-OV-3, 144 h; continuous exposure six days
Experimental: as §1, §2

[8] = tested on: chick chorioallantoic membrane (CAM) blood vessels; assay: Chick chorioallantoic membrane (CAM) assay for antiangiogenic activity; format: in vivo
Experimental: The CAM assay, which is widely applied to evaluate in vivo antiangiogenic activity, was utilized with SR 13179.
The methods used were those of Folkman (Auerbach et al. (1974) Dev. Biol. 41:391-394), with some modifications. The test compound was dissolved in saline and methylcellulose, and the embryos dosed once daily for 12-14 days. Blood vessel density of each embryo was measured as the quantitative endpoint. The known antiangiogenic compound medroxyprogesterone acetate (MPA) was used as a positive control.

[9] = biological target: T1, p38 MAPK (Homo sapiens, UniProt Q16539); assay: Inhibition of p38 MAPK in MCF-7 cells; format: cell-based; details: MCF-7 human breast cancer cell line
T1 construct: endogenous in cells; host or cells: MCF-7 human breast cancer cells

[10] = 11.1 μg/CAM, once daily for 12-14 days

T1 sequence (Q16539 whole entry): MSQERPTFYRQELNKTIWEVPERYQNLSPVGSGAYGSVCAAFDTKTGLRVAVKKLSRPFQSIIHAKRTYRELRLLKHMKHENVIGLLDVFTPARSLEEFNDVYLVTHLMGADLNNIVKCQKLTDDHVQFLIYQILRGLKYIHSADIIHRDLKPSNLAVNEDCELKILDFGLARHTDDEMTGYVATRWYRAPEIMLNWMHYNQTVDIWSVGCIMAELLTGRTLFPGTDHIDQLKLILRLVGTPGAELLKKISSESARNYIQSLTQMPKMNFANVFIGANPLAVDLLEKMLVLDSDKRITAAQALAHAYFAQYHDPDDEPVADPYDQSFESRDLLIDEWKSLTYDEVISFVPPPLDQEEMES

COc1cc(C2CC(O)c3ccc4ccccc4c3O2)cc(OC)c1OC (centres unmarked) [SR 13179, 2-(3,4,5-trimethoxyphenyl)-3,4-dihydro-2H-benzo[h]chromen-4-ol]
tumors smaller than untreated control ([1]; Day 10, oral and i.p., 10, 30 and 100 mg/kg once a day): about 50%
body weights of the treated mice ([1]; all doses studied (10, 30, 100 mg/kg; oral and i.p.)): unaffected
tumor growth compared to untreated control ([1]; duration of the four-week study, oral and i.p.): significantly inhibited
cell-associated MMP-9 protein levels [2]: does not affect
decrease in cell viability [3]: less than 5%
IC50 [4]: 0.27 µM
IC50 [5]: 0.281 µM
nuclear morphology (Hoechst 33258) ([6]; 0.5 μM or 1 μM, 28 h): chromatin condensation characteristic of a prometaphase arrest
G2/M fraction compared with the control ([6]; 2 μM and greater, 24 h, flow cytometry): two-fold increase
IC50 [7]: 0.529 µM
Blood vessel density score [8, 10]: 4.6 ± 2.2
Percent inhibition relative to control [8, 10]: 57%
in vivo antiangiogenic activity compared with MPA ([8]; CAM assay): equivalent to that of MPA
p38 MAPK [9]: inhibited
